In paper PMC4894417, “Quantitative High-Throughput Profiling of Environmental Chemicals and Drugs that Modulate Farnesoid X Receptor” (Scientific Reports, 2014):
Values joined by “and” are separate entries in the source; they are usually repeats but may differ in a detail not shown here. Equal values may be shown once. “Also recorded” adds a separate entry of the source. Read-outs that look alike come from different tables or passages of the source. Values belong to the compound of their own block, whether it stands above or below them.

Experiments:
FXR-LBD [1] = molecular target: T1, FXR-LBD (Homo sapiens, UniProt Q96RI1); assay: FXR TR-FRET coactivator recruitment assay, agonist mode; type: biochemical; settings: Table 1; coactivator SRC2-2 recruitment
T1 construct: The glutathione S-transferase (GST)-tagged FXR-LBD protein; purchased Life Technologies
T1 sequence (Q96RI1 262-486 limits assumed): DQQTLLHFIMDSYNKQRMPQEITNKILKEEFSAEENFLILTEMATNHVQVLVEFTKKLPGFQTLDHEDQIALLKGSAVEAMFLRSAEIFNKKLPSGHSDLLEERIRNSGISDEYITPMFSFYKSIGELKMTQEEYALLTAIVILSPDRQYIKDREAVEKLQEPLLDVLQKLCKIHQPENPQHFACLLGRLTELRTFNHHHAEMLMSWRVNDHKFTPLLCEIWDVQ

FXR-LBD [2] = molecular target: T1, FXR-LBD; assay: FXR TR-FRET coactivator recruitment assay, antagonist mode (50 μM CDCA); type: biochemical
human FXR [3] = molecular target: T2, human FXR (Homo sapiens, UniProt Q96RI1); assay: FXR-bla reporter gene assay, agonist mode (qHTS); settings: for FXR-bla, agonist Efficacy: Table 1, activation as percent of positive control (CDCA 100%), mean ± SD of 3; for FXR-bla, agonist EC50: Table 1, confirmed compounds, mean ± SD of 3 experiments
[4] = tested on: FXR-UAS-bla HEK293T cells; assay: Cell viability assay (CellTiter Glo) in the same well as FXR-bla; settings: for Cell viability IC50: Table 1, mean ± SD of 3 experiments
human FXR [5] = molecular target: T2, human FXR; assay: FXR-bla reporter gene assay, antagonist mode (CDCA-induced transactivation); settings: for FXR-bla, antagonist Efficacy: inhibition as percent of positive control (guggulsterone)
[6] = tested on: FXR-UAS-bla HEK293T cells
[7] = Cell viability assay (CellTiter Glo) in the same well as FXR-bla; settings: human, FXR-UAS-bla HEK293T cells
vitamin D receptor (VDR) = vitamin D receptor (VDR) (Homo sapiens, UniProt P11473); assay: VDR-bla reporter gene assay (agonist and antagonist modes)
[8] = Table 1, in the presence of 50 μM CDCA

T2 sequence (Q96RI1 with tags, fused parts or gaps limits assumed): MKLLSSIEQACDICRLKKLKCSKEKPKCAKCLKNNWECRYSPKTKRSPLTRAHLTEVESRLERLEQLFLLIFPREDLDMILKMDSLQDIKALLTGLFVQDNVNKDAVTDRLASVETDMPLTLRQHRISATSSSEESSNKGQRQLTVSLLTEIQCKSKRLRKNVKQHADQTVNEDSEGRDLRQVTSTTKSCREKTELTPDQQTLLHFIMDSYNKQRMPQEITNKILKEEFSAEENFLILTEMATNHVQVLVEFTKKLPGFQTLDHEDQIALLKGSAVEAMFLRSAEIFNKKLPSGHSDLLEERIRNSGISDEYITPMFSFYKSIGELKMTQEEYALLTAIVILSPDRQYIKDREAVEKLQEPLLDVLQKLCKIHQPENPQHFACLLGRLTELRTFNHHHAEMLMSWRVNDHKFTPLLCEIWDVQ
vitamin D receptor (VDR), sequence (P11473 with tags, fused parts or gaps limits assumed): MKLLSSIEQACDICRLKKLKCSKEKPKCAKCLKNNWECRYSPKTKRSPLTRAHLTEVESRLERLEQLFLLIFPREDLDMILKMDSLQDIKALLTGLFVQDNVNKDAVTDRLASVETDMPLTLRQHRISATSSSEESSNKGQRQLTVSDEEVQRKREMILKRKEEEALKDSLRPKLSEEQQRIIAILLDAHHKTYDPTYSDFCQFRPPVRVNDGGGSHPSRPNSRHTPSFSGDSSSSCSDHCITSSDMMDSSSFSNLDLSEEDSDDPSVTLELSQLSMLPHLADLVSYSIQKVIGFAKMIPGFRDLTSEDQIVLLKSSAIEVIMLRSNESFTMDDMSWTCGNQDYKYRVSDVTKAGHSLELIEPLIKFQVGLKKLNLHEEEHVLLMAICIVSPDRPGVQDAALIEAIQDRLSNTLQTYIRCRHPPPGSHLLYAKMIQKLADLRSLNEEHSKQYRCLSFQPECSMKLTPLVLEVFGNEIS

FXR TR-FRET, antagonist IC50 (FXR-LBD [2]; [8]): Inactive
EC50 (human FXR [3]): 11.2 ± 2.09 µM
FXR-bla, agonist Efficacy (human FXR [3]): 152% and 152 ± 22%
FXR-bla, antagonist IC50 (human FXR [5]; Table 1, 50 μM CDCA, mean ± SD of 3 experiments): Inactive
Structure (SMILES): Nc1c2ccccc2nc2ccccc12 [9-Aminoacridine]
FXR TR-FRET, agonist EC50 (FXR-LBD [1]): unable to induce coactivator recruitment; also recorded: Inactive
Cell viability IC50 [4]: Inactive

Structure (SMILES): CC1=C(/C=C/C(C)=C/C=C/C(C)=C\C(=O)O)C(C)(C)CCC1 [13-cis Retinoic acid]
Cytotoxicity Efficacy [6]: 52 ± 44

Structure (SMILES): C/C=C1/C(=O)C[C@H]2[C@@H]3CCC4=CC(=O)CC[C@]4(C)[C@H]3CC[C@]12C [(E)-Guggulsterone]
Cytotoxicity IC50 [6]: Inactive

Structure (SMILES): C/C=C1\C(=O)C[C@H]2[C@@H]3CCC4=CC(=O)CC[C@]4(C)[C@H]3CC[C@]12C [(Z)-Guggulsterone]
Cytotoxicity IC50 [6]: Inactive

Structure (SMILES): CC1(C)CCC(C)(C)c2cc(NC(=O)c3ccc(C(=O)O)cc3)ccc21 [AM80]
Cytotoxicity IC50 [6]: Inactive
FXR agonist mode Efficacy (human FXR [3]): 18 ± 7
FXR agonist activity (human FXR [3]; FXR-bla assay): selectively induced transactivation of FXR
EC50 (human FXR [3]; read-out: FXR agonist mode EC50, Table S1, primary screening): 38.9 ± 2.36 µM
FXR antagonist mode IC50 (human FXR [5]): Inactive

FXR agonist mode EC50 (human FXR [3]; Table S1, primary screening): Inactive
IC50 (human FXR [5]; FXR antagonist mode IC50, Table S1, primary screening, 50 µM CDCA): 0.44 ± 0.21 µM
FXR antagonist activity (human FXR [5]; FXR-bla assay, CDCA-induced): inconclusive antagonists
Structure (SMILES): CC(C)C[C@H](NC(=O)[C@H](Cc1ccccc1)NC(=O)c1cnccn1)B(O)O [Bortezomib]
IC50 at 16 h [7]: 0.22 ± 0.1 µM
Cytotoxicity Efficacy ([4]; Table S1, primary screening): 57 ± 2%

Structure (SMILES): CC1=C2C[C@H]3[C@@H](CC=C4C[C@@H](O)CC[C@@]43C)[C@@H]2CC[C@]12O[C@@H]1C[C@H](C)CN[C@H]1[C@H]2C [Cyclopamine]
FXR TR-FRET, agonist EC50 (FXR-LBD [1]): unable to induce coactivator recruitment; also recorded: Inactive
FXR TR-FRET, antagonist IC50 (FXR-LBD [2]; [8]): Inactive
EC50 (human FXR [3]): 10.6 ± 3.13 µM
FXR-bla, agonist Efficacy (human FXR [3]): 94% and 94 ± 9%
IC50 ([4]; Homo sapiens, HEK-293T, read-out: Cell viability IC50): 17.6 µM
FXR-bla, antagonist IC50 (human FXR [5]): Inactive

Structure (SMILES): CC1(C)C(/C=C(\Cl)C(F)(F)F)C1C(=O)OC(C#N)c1cccc(Oc2ccccc2)c1 (centres unmarked) [Cyhalothrin]
FXR agonist mode EC50 (human FXR [3]; Table S1, primary screening): Inactive
VDR activity (vitamin D receptor (VDR)): antagonist activity
Cytotoxicity IC50 ([4]; Table S1, primary screening): Inactive
FXR antagonist mode Efficacy (human FXR [5]): 50 ± 15
IC50 (human FXR [5]; FXR antagonist mode IC50): 21.3 ± 13.1 µM

Structure (SMILES): O=C1c2ccccc2C(=O)C1C(=O)C(c1ccccc1)c1ccccc1 [Diphacinone]
FXR TR-FRET, agonist EC50 (FXR-LBD [1]): Inactive
FXR TR-FRET, antagonist IC50 (FXR-LBD [2]): Inactive
FXR-bla, agonist EC50 (human FXR [3]): Inactive
Cell viability IC50 [4]: Inactive
IC50 (human FXR [5]; FXR-bla, antagonist IC50): 15 µM

FXR TR-FRET, agonist EC50 (FXR-LBD [1]): Inactive
FXR TR-FRET, antagonist IC50 (FXR-LBD [2]; [8]): Inactive
FXR-bla, agonist EC50 (human FXR [3]): Inactive
IC50 (human FXR [5]): 3.5 ± 0.4 µM
FXR-bla, antagonist Efficacy (human FXR [5]; Table 1, 50 μM CDCA): 81 ± 5%
FXR antagonist Efficacy (human FXR [5]; Table S3, 50 µM CDCA): 53 ± 11%
Structure (SMILES): OCCN(CCO)c1nc(N2CCCCC2)c2nc(N(CCO)CCO)nc(N3CCCCC3)c2n1 [Dipyridamole]
Cell viability IC50 [4]: Inactive

FXR TR-FRET, agonist EC50 (FXR-LBD [1]): Inactive
FXR TR-FRET, antagonist IC50 (FXR-LBD [2]; [8]): Inactive
FXR-bla, agonist EC50 (human FXR [3]): Inactive
IC50 (human FXR [5]): 10.2 ± 0.69 µM
FXR-bla, antagonist Efficacy (human FXR [5]; Table 1, 50 μM CDCA): 110 ± 9%
Structure (SMILES): Cn1cc(C2=C(c3cn(C4CCN(Cc5ccccn5)CC4)c4ccccc34)C(=O)NC2=O)c2ccccc21 [Enzastaurin]
Cell viability IC50 [4]: Inactive

Structure (SMILES): CC(C)[C@H](C(=O)OC(C#N)c1cccc(Oc2ccccc2)c1)c1ccc(OC(F)F)cc1 (some centres unmarked) [Flucythrinate]
FXR agonist mode EC50 (human FXR [3]; Table S1, primary screening): Inactive
VDR activity (vitamin D receptor (VDR)): antagonist activity
Cytotoxicity IC50 ([4]; Table S1, primary screening): Inactive
FXR antagonist mode Efficacy (human FXR [5]): 37 ± 9
IC50 (human FXR [5]; FXR antagonist mode IC50): 31.4 ± 20.5 µM
